The numbers were not newly measured in patent publication US8747895B2 (priority 2004, dated 2014), which cites them from elsewhere.

Like-named read-outs stand apart in the source and are kept apart here.

The conditions of the series: for absolute bioavailability: oral administration.

For “(−)-N-Methyl-3-(o-tolyloxy)-propylamine hydrochloride [Atomoxetine]”, the absolute bioavailability (EMs (extensive metabolizers)) is listed as 63%. Moreover, under “PMs (poor metabolizers)”, the absolute bioavailability was 94%. For the same substance, where the note is “standard high-fat meal”, the “delay of Tmax with food” value is 3 h and the “lower Cmax with food” value was 10-37%.
